Data taken from patent publication US6737383B1, “Herbicidal oxadiazolidines” (priority 1999, dated 2004).

Assays:
velvetleaf = assay: Test B pre/postemergence velvetleaf; type: in vivo, Abutilon theophrasti; settings: for Plant response rating, Velvetleaf: scale of 0 to 10 where 0 is no effect and 10 is complete control
Outline: (§1)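 Test chemicals in a non-phytotoxic solvent mixture with surfactant were sprayed preemergence onto planted seeds and postemergence onto plants 2 to 18 cm tall (1- to 4-leaf stage). After twelve to sixteen days in a greenhouse, injury was visually rated against untreated controls from 0 (no effect) to 10 (complete control).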

pigweed = assay: Test B pre/postemergence pigweed; type: in vivo, Amaranthus retroflexus; settings: for Plant response rating, Redroot pigweed: scale of 0 to 10 where 0 is no effect and 10 is complete control
Outline: as §1

surinam grass = assay: Test B pre/postemergence surinam grass; type: in vivo, Brachiaria decumbens
Outline: as §1

wild oat = assay: Test B pre/postemergence wild oat; type: in vivo, Avena fatua; settings: for Plant response rating, Wild oats: scale of 0 to 10 where 0 is no effect and 10 is complete control
Outline: as §1

wheat = assay: Test B pre/postemergence wheat; type: in vivo, Triticum aestivum; settings: for Plant response rating, Wheat: scale of 0 to 10 where 0 is no effect and 10 is complete control
Outline: as §1

blackgrass = assay: Test B pre/postemergence blackgrass; type: in vivo, Alopecurus myosuroides
Outline: as §1

bamyardgrass = assay: Test B flood test barnyardgrass; type: in vivo, Echinochloa crus-galli
Outline: (§2)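 Plants were grown to the 2-leaf stage before treatment with test chemical, then held in a greenhouse for twelve to sixteen days. Injury was visually rated against untreated controls on a 0–10 scale, where 0 is no effect and 10 is complete control.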

morningglory = assay: Test B pre/postemergence morningglory; type: in vivo, Ipomoea hederacea; settings: for Plant response rating, Morningglory: scale of 0 to 10 where 0 is no effect and 10 is complete control
Outline: as §1

purple nutsedge = assay: Test B pre/postemergence purple nutsedge; type: in vivo, Cyperus rotundus; settings: for Plant response rating, Nutsedge: scale of 0 to 10 where 0 is no effect and 10 is complete control
Outline: as §1

cocklebur = assay: Test B pre/postemergence cocklebur; type: in vivo, Xanthium strumarium
Outline: as §1

giant foxtail = assay: Test B pre/postemergence giant foxtail; type: in vivo, Setaria faberii
Outline: as §1

bedstraw = assay: Test B pre/postemergence bedstraw; type: in vivo, Galium aparine; settings: for Plant response rating, Bedstraw: scale of 0 to 10 where 0 is no effect and 10 is complete control
Outline: as §1

duck salad = assay: Test B flood test duck salad; type: in vivo, Heteranthera limosa
Outline: as §2

rice = assay: Test B flood test rice; type: in vivo, Oryza sativa
Outline: as §2

crabgrass = assay: Test B pre/postemergence crabgrass; type: in vivo, Digitaria sanguinalis
Outline: as §1

sugar beet = assay: Test B pre/postemergence sugar beet; type: in vivo, Beta vulgaris; settings: for Plant response rating, Sugarbeets: scale of 0 to 10 where 0 is no effect and 10 is complete control
Outline: as §1

[1] = Postemergence, Rate 250 g/ha, scale 0 to 10
[2] = Preemergence, Rate 250 g/ha, scale 0 to 10, 0 is no effect, 10 is complete control
[3] = Preemergence, Rate 500 g/ha, scale 0 to 10, 0 is no effect, 10 is complete control
[4] = Rate 62 g/ha, Postemergence, scale 0 to 10 (0 no effect, 10 complete control)
[5] = Rate 125 g/ha, Postemergence, scale 0 to 10, 0 is no effect, 10 is complete control
[6] = Postemergence, Rate 500 g/ha, scale of 0 to 10 where 0 is no effect and 10 is complete control
[7] = Preemergence, Rate 62 g/ha, scale of 0 to 10 where 0 is no effect and 10 is complete control
[8] = Preemergence, Rate 125 g/ha, scale of 0 to 10 where 0 is no effect and 10 is complete control
[9] = Rate 62 g/ha, flood test species, Pre-emergence, visual evaluation after twelve to sixteen days
[10] = Rate 125 g/ha, under heading Pre-emergence, flood test species, visual evaluation after twelve to sixteen days
[11] = Rate 250 g/ha, Pre-emergence (flood test species), scale 0 to 10, 0 is no effect, 10 is complete control
[12] = Rate 500 g/ha, Pre-emergence, flood test species, scale 0 to 10 (0 no effect, 10 complete control)

CC(C)N(C(=O)n1oc(=O)n(COC(=O)C(C)(C)C)c1=O)c1ccc(F)cc1 [Compound 462]
0: Velvetleaf plant response rating (velvetleaf; [1]) | Plant response rating, Velvetleaf (velvetleaf; Preemergence, Rate 62 g/ha) | Plant response rating, Velvetleaf (velvetleaf; Preemergence, Rate 125 g/ha) | Velvetleaf plant response rating (velvetleaf; [2]) | Velvetleaf plant response rating (velvetleaf; [3]) | Velvetleaf plant response rating (velvetleaf; [4]) | Velvetleaf plant response rating (velvetleaf; [5]) | Redroot pigweed plant response rating (pigweed; [1]) | Plant response rating, Redroot pigweed (pigweed; Preemergence, Rate 62 g/ha) | Plant response rating, Redroot pigweed (pigweed; Preemergence, Rate 125 g/ha) | Redroot pigweed plant response rating (pigweed; [2]) | Redroot pigweed plant response rating (pigweed; [3]) | Redroot pigweed plant response rating (pigweed; [4]) | Redroot pigweed plant response rating (pigweed; [5]) | B. signalgrass plant response rating (surinam grass; Postemergence, Rate 250 g/ha, scale 0 to 10, 0 no effect, 10 complete control) | B. signalgrass plant response rating (surinam grass; [6]) | Plant response rating, B. signalgrass (surinam grass; [7]) | Plant response rating, B. signalgrass (surinam grass; [8]) | B. signalgrass plant response rating (surinam grass; [2]) | B. signalgrass plant response rating (surinam grass; [3]) | B. signalgrass plant response rating (surinam grass; [4]) | B. signalgrass plant response rating (surinam grass; [5]) | Wild oats plant response rating (wild oat; [1]) | Plant response rating, Wild oats (wild oat; Preemergence, Rate 62 g/ha) | Plant response rating, Wild oats (wild oat; Preemergence, Rate 125 g/ha) | Wild oats plant response rating (wild oat; [2]) | Wild oats plant response rating (wild oat; [3]) | Wild oats plant response rating (wild oat; [4]) | Wild oats plant response rating (wild oat; [5]) | Wheat plant response rating (wheat; [1]) | Plant response rating, Wheat (wheat; Preemergence, Rate 62 g/ha) | Plant response rating, Wheat (wheat; Preemergence, Rate 125 g/ha) | Wheat plant response rating (wheat; [2]) | Wheat plant response rating (wheat; [3]) | Wheat plant response rating (wheat; [4]) | Wheat plant response rating (wheat; [5]) | Blackgrass plant response rating (blackgrass; [1]) | Blackgrass plant response rating (blackgrass; [6]) | Plant response rating, Blackgrass (blackgrass; [7]) | Plant response rating, Blackgrass (blackgrass; [8]) | Blackgrass plant response rating (blackgrass; [2]) | Blackgrass plant response rating (blackgrass; [3]) | Blackgrass plant response rating (blackgrass; [4]) | Blackgrass plant response rating (blackgrass; [5]) | Plant response rating, Barnyardgrass (0 to 10 scale, 0 is no effect, 10 is complete control) (bamyardgrass; [9]) | Barnyardgrass plant response rating (0 to 10 scale, 0 is no effect, 10 is complete control) (bamyardgrass; [10]) | Barnyardgrass plant response rating (bamyardgrass; [11]) | Barnyardgrass plant response rating (bamyardgrass; [12]) | Morningglory plant response rating (morningglory; [1]) | Plant response rating, Morningglory (morningglory; Preemergence, Rate 62 g/ha) | Plant response rating, Morningglory (morningglory; Preemergence, Rate 125 g/ha) | Morningglory plant response rating (morningglory; [2]) | Morningglory plant response rating (morningglory; [3]) | Morningglory plant response rating (morningglory; [4]) | Morningglory plant response rating (morningglory; [5]) | Nutsedge plant response rating (purple nutsedge; [1]) | Plant response rating, Nutsedge (purple nutsedge; Preemergence, Rate 62 g/ha) | Plant response rating, Nutsedge (purple nutsedge; Preemergence, Rate 125 g/ha) | Nutsedge plant response rating (purple nutsedge; [2]) | Nutsedge plant response rating (purple nutsedge; [3]) | Nutsedge plant response rating (purple nutsedge; [4]) | Nutsedge plant response rating (purple nutsedge; [5]) | Cocklebur plant response rating (cocklebur; [1]) | Cocklebur plant response rating (cocklebur; [6]) | Plant response rating, Cocklebur (cocklebur; [7]) | Plant response rating, Cocklebur (cocklebur; [8]) | Cocklebur plant response rating (cocklebur; [2]) | Cocklebur plant response rating (cocklebur; [3]) | Cocklebur plant response rating (cocklebur; [4]) | Cocklebur plant response rating (cocklebur; [5]) | Giant foxtail plant response rating (giant foxtail; [1]) | Giant foxtail plant response rating (giant foxtail; [6]) | Plant response rating, Giant foxtail (giant foxtail; [7]) | Plant response rating, Giant foxtail (giant foxtail; [8]) | Giant foxtail plant response rating (giant foxtail; [2]) | Giant foxtail plant response rating (giant foxtail; [3]) | Giant foxtail plant response rating (giant foxtail; [4]) | Giant foxtail plant response rating (giant foxtail; [5]) | Plant response rating, Bedstraw (bedstraw; Preemergence, Rate 62 g/ha) | Plant response rating, Bedstraw (bedstraw; Preemergence, Rate 125 g/ha) | Bedstraw plant response rating (bedstraw; [2]) | Bedstraw plant response rating (bedstraw; [3]) | Bedstraw plant response rating (bedstraw; [4]) | Bedstraw plant response rating (bedstraw; [5]) | Plant response rating, Ducksalad (0 to 10 scale, 0 is no effect, 10 is complete control) (duck salad; [9]) | Ducksalad plant response rating (0 to 10 scale, 0 is no effect, 10 is complete control) (duck salad; [10]) | Ducksalad plant response rating (duck salad; [11]) | Ducksalad plant response rating (duck salad; [12]) | Plant response rating, Rice (0 to 10 scale, 0 is no effect, 10 is complete control) (rice; [9]) | Rice plant response rating (0 to 10 scale, 0 is no effect, 10 is complete control) (rice; [10]) | Rice plant response rating (rice; [11]) | Rice plant response rating (rice; [12]) | Crabgrass plant response rating (crabgrass; [1]) | Crabgrass plant response rating (crabgrass; [6]) | Plant response rating, Crabgrass (crabgrass; [7]) | Plant response rating, Crabgrass (crabgrass; [8]) | Crabgrass plant response rating (crabgrass; [2]) | Crabgrass plant response rating (crabgrass; [3]) | Crabgrass plant response rating (crabgrass; [4]) | Crabgrass plant response rating (crabgrass; [5]) | Sugarbeets plant response rating (sugar beet; [1]) | Plant response rating, Sugarbeets (sugar beet; Preemergence, Rate 62 g/ha) | Plant response rating, Sugarbeets (sugar beet; Preemergence, Rate 125 g/ha) | Sugarbeets plant response rating (sugar beet; [2]) | Sugarbeets plant response rating (sugar beet; [3]) | Sugarbeets plant response rating (sugar beet; [4]) | Sugarbeets plant response rating (sugar beet; [5])
